Read-outs that look alike come from different tables or passages of the source.
Tests used:
NMP53^−/− cells = experiment: Colony formation assay on NMP53^−/− cells; assay type: cell-based, murine; details: colony formation assay; for minimal effective concentration: 5 days, read-out: EC (NMP53^−/−); for selectivity for NMP53^−/− cells: NMP53^−/− versus NMCdkn2a^ARF−/− cells
From the text: (§1) To evaluate the effect of small molecules equipped with R-spine interacting moieties, the inventors screened a focused library of proprietary p38a MAP-Kinase inhibitors which were equipped with R-spine interacting pharmacophores. To this end, the inventors utilized a screening system as developed in Dauch et al.^2 The screening system is based on colony formation assays of cell lines isolated from Nras-driven, Trp53-deficient murine HCCs, whose development is dependent on MYC (NMP53^−/− cells), as well as Nras-driven, Cdkn2a^ARF-deficient murine HCCs, which develop independently of MYC (NMCdkn2a^ARF−/− cells). Importantly, NMP53^−/− cells are sensitive to AURKA inhibitors, which induce a conformational shift in AURKA, whereas NMCdkn2a^ARF−/− are not sensitive to such compounds.
(§2) For Colony Formation Assays, cells were seeded at a density of 50 000 cells per 6 well and next day treated with a 2-fold dilution series of the indicated compounds or the highest corresponding DMSO concentration as control. After 5 days, the cells were fixed with a 10% formaldehyde solution for 30 min, washed once with water, stained with a 0.5% crystal violet solution for 30 min and washed twice with water. The compounds effective concentration (EC) was determined according to the lowest concentration in the dilution series, that inhibited cell growth substantially. The resulting benzamide containing hit structure 1, with a twofold selectivity towards NMP53^−/− cells (effective concentration on NMP53^−/− cells (EC): 2 μM, EC on Cdkn2a^ARF−/−: 4 μM, FIG. 1), served as the inventors' starting point for further compound development.

NMCdkn2a^ARF−/− cells = experiment: Colony formation assay on NMCdkn2a^ARF−/− cells; assay type: cell-based, murine; details: 5 days, read-out: EC (NMCdkn2a^ARF−/−)
From the text: as §1, §2

[1] = Mus musculus, 120 h, lowest concentration of 2-fold dilution series that inhibited cell growth substantially

Row | Structure (SMILES) | minimal effective concentration (NMP53^−/− cells; Mus musculus, 120 h) [µM] | minimal effective concentration (NMCdkn2a^ARF−/− cells; Mus musculus, 120 h) [µM] | also measured
1 | O=C(CC1CC1)Nc1cc(NCc2cc(-c3cc4cccnc4[nH]3)ccn2)ccc1F [Compound 8ok, N-(5-(((4-(1H-Pyrrolo[2,3-b]pyridin-2-yl)pyridin-2-yl)methyl)amino)-2-fluorophenyl)-2-cyclopropylacetamide] | 0.5 | 1 | –
2 | Cn1cc(-c2ccc(COc3ccc(F)c(NC(=O)CCc4ccccc4)c3)cc2)cn1 [Compound 124, N-(2-fluoro-5-((4-(1-methyl-1H-pyrazol-4-yl)benzyl)oxy)phenyl)-3-phenylpropanamide] | 0.25 | > 1 | –
3 | CC(C)n1cc(-c2ccc(CNc3ccc(F)c(NC(=O)CCc4ccco4)c3)cc2)cn1 [Compound 3d, N-(2-fluoro-5-((4-(1-isopropyl-1H-pyrazole-4-yl)benzyl)amino)phenyl)-3-(furan-2-yl)propanamide] | 4 | 4 | minimal effective concentration (NMP53^−/− cells; [1]): 4 µM; selectivity for NMP53^−/− cells (NMP53^−/− cells): loss of selectivity; minimal effective concentration (NMCdkn2a^ARF−/− cells; [1]): 4 µM
4 | Cn1cc(-c2ccc(CNc3ccc(F)c(NC(=O)CCc4ccccc4)c3)nc2)cn1 [Compound 130, N-(2-fluoro-5-(((5-(1-methyl-1H-pyrazol-4-yl)pyridin-2-yl)methyl)amino)phenyl)-3-phenylpropanamide] | 0.5 | > 1 | –
5 | Cn1ncc(-c2ccc(CNc3ccc(F)c(NC(=O)CCc4ccco4)c3)cc2)c1N [Compound 146, N-(5-((4-(5-Amino-1-methyl-1H-pyrazol-4-yl)benzyl)amino)-2-fluorophenyl)-3-(furan-2-yl)propanamide] | 0.125 | > 1 | –
6 | Cn1cc(-c2ccc(CNc3ccc(F)c(NC(=O)CCc4ccc[nH]4)c3)cc2)cn1 [Compound 107q, N-(2-fluoro-5-((4-(1-methyl-1H-pyrazol-4-yl)benzyl)amino)phenyl)-3-(1H-pyrrol-2-yl)propanamide] | 0.5 to 1 | 4 | –
7 | Cn1ccc(Nc2ccc(CNc3ccc(F)c(NC(=O)CCc4ccco4)c3)cc2)n1 [Compound 155, N-(2-fluoro-5-((4-((1-methyl-1H-pyrazol-3-yl)amino)benzyl)amino)phenyl)-3-(furan-2-yl)propanamide] | 0.25 | > 1 | –
8 | CC(=O)Nc1cc(NCc2ccc(-c3cn[nH]c3)cc2)ccc1F [Compound 2b, N-(5-((4-(1H-pyrazole-4-yl)benzyl)amino)-2-fluorophenyl)acetamide] | > 4 | > 4 | minimal effective concentration (NMCdkn2a^ARF−/− cells; [1]): > 4 µM
9 | O=C(CC1CCCCC1)Nc1cc(NCc2cc(-c3cc4cccnc4[nH]3)ccn2)ccc1F [Compound 8oj, N-(5-(((4-(1H-Pyrrolo[2,3-b]pyridin-2-yl)pyridin-2-yl)methyl)amino)-2-fluorophenyl)-2-cyclohexylacetamide] | 0.5 | 1 | –
10 | Cn1cc(-c2ccc(CNc3ccc(F)c(NC(=O)CCC4CCCO4)c3)cc2)cn1 (centres unmarked) [Compound 107g, N-(2-fluoro-5-((4-(1-methyl-1H-pyrazol-4-yl)benzyl)amino)phenyl)-3-(tetrahydrofuran-2-yl)propanamide] | 0.125 | 2 | –
11 | Cc1ccc(CCC(=O)Nc2cc(NCc3ccc(-c4cn[nH]c4)cc3)ccc2F)o1 [Compound 106h, N-(5-((4-(1H-Pyrazol-4-yl)benzyl)amino)-2-fluorophenyl)-3-(5-methylfuran-2-yl)propanamide] | 0.25 | 2 | –
12 | CC(=O)n1cc(-c2ccc(CNc3ccc(F)c(NC(=O)CCc4ccco4)c3)cc2)cn1 [Compound 164, N-(5-((4-(1-Acetyl-1H-pyrazol-4-yl)benzyl)amino)-2-fluorophenyl)-3-(furan-2-yl)propanamide] | 0.125 | > 1 | –
13 | COc1cc(-c2cn[nH]c2)ccc1CNc1ccc(F)c(NC(=O)CCc2ccco2)c1 [Compound 127d, N-(2-fluoro-5-((2-methoxy-4-(1H-pyrazol-4-yl)benzyl)amino)phenyl)-3-(furan-2-yl)propanamide] | 0.25 | 2 | –
14 | COc1cc(CNc2ccc(F)c(NC(=O)CCc3ccco3)c2)ccc1-c1cn[nH]c1 [Compound 127b, N-(2-fluoro-5-((3-methoxy-4-(1H-pyrazol-4-yl)benzyl)amino)phenyl)-3-(furan-2-yl)propanamide] | 0.25 | > 1 | –
15 | Cn1cc(-c2ccc(CNc3ccc(F)c(NC(=O)CCc4ccco4)c3)cc2F)cn1 [Compound 128a, N-(2-fluoro-5-((3-fluoro-4-(1-methyl-1H-pyrazol-4-yl)benzyl)amino)phenyl)-3-(furan-2-yl)propanamide] | 0.032 | 0.125 to 0.25 | –
16 | COc1cc(-c2cnn(C)c2)ccc1CNc1ccc(F)c(NC(=O)CCc2ccco2)c1 [Compound 128d, N-(2-fluoro-5-((2-methoxy-4-(1-methyl-1H-pyrazol-4-yl)benzyl)amino)phenyl)-3-(furan-2-yl)propanamide] | 0.031 | > 0.5 | –
17 | Cn1cc(-c2ccc(CNc3ccc(F)c(NC(=O)Cc4ccco4)c3)cc2)cn1 [Compound 107m, N-(2-fluoro-5-((4-(1-methyl-1H-pyrazol-4-yl)benzyl)amino)phenyl)-2-(furan-2-yl)acetamide] | 0.125 | 16 | –
18 | O=C(CCc1ccco1)Nc1cc(NCc2ccc(-c3cn[nH]c3)cc2)ccc1Cl [Compound 113a, N-(5-((4-(1H-Pyrazol-4-yl)benzyl)amino)-2-chlorphenyl)-3-(furan-2-yl)propanamide] | – | – | minimal effective concentration (NMP53^−/− cells): 0.5 µM; minimal effective concentration (NMCdkn2a^ARF−/− cells): >1 µM
19 | CN(C(=O)CCc1ccco1)c1cc(NCc2ccc(-c3cnn(C)c3)cc2)ccc1F [Compound 4, N-(2-fluoro-5-((4-(1-methyl-1H-pyrazole-4-yl)benzyl)amino)phenyl)-3-(furan-2-yl)-N-methylpropanamide] | > 4 | > 4 | minimal effective concentration (NMP53^−/− cells; [1]): > 4 µM; minimal effective concentration (NMP53^−/− cells; lowest concentration of 2-fold dilution series that inhibited cell growth substantially): >4 µM; minimal effective concentration (NMCdkn2a^ARF−/− cells; [1]): > 4 µM
20 | O=C(CCc1ccc[nH]1)Nc1cc(NCc2ccc(-c3cn[nH]c3)cc2)ccc1F [Compound 106q, N-(5-((4-(1H-Pyrazol-4-yl)benzyl)amino)-2-fluorophenyl)-3-(1H-pyrrol-2-yl)propanamide] | 1 to 2 | > 4 | –
21 | Cc1noc(C)c1-c1ccc(CNc2ccc(F)c(NC(=O)CCc3ccco3)c2)cc1 [Compound 139, N-(5-((4-(3,5-Dimethylisoxazol-4-yl)benzyl)amino)-2-fluorophenyl)-3-(furan-2-yl)propanamide] | 0.5 | 1 | –
22 | Nc1n[nH]cc1-c1ccc(CNc2ccc(F)c(NC(=O)CCc3ccco3)c2)cc1 [Compound 144, N-(5-((4-(3-Amino-1H-pyrazol-4-yl)benzyl)amino)-2-fluorophenyl)-3-(furan-2-yl)propanamide] | 0.25 | > 1 | –
23 | NCCn1cc(-c2ccc(CNc3ccc(F)c(NC(=O)CCc4ccco4)c3)cc2)cn1 [Compound 167, N-(5-((4-(1-(2-Aminoethyl)-1H-pyrazol-4-yl)benzyl)amino)-2-fluorophenyl)-3-(furan-2-yl)propanamide] | 0.5 | 1 | –
24 | Cn1cc(-c2ccc(CNc3ccc(F)c(NC(=O)CCc4ccco4)c3)c(F)c2)cn1 [Compound 128c, N-(2-fluoro-5-((2-fluoro-4-(1-methyl-1H-pyrazol-4-yl)benzyl)amino)phenyl)-3-(furan-2-yl)propanamide] | 0.125 | 0.5 to 1 | –
25 | CCCn1cc(-c2ccc(CNc3ccc(F)c(NC(=O)CCc4ccco4)c3)cc2)cn1 [Compound 3c, N-(2-fluoro-5-((4-(1-propyl-1H-pyrazole-4-yl)benzyl)amino)phenyl)-3-(furan-2-yl)propanamide] | 4 | > 4 | minimal effective concentration (NMP53^−/− cells; [1]): 4 µM; selectivity for NMP53^−/− cells (NMP53^−/− cells): loss of selectivity; minimal effective concentration (NMCdkn2a^ARF−/− cells; [1]): > 4 µM
26 | COc1cc(CNc2ccc(F)c(NC(=O)CCc3ccco3)c2)ccc1-c1cnn(C)c1 [Compound 128b, N-(2-fluoro-5-((3-methoxy-4-(1-methyl-1H-pyrazol-4-yl)benzyl)amino)phenyl)-3-(furan-2-yl)propanamide] | 0.062 | > 0.5 | –

Source: patent publication US20240101538A1, “PROTEIN-PROTEIN INTERACTION MODULATORS OF AURORA KINASE A AND THEIR USE IN THE PREVENTION AND/OR TREATMENT OF CANCER” (EBERHARD KARLS UNIVERSITÄT TÜBINGEN, priority 2020, published 2024)
